# Laboratory results as given in ChEMBL document CHEMBL1201862, “PubChem BioAssay data set” (2004).
# Active and inactive are the calls of the source.
# Tests used:
# Cytochrome P450 2C9 = Cytochrome P450 2C9 (Homo sapiens, UniProt P11712)
# Cytochrome P450 2C19 = Cytochrome P450 2C19 (Homo sapiens, UniProt P33261); assay: Cytochrome panel assay with activity outcomes. Panel member name: p450-cyp2c19 Compounds with AC50 equal or less than 10 uM are considered active; assay type: functional
# Protein RecA = target: T1, Protein RecA (Mycobacterium tuberculosis, UniProt P9WHJ3); assay: Fluorescence Cell-Free Homogeneous Dose Retest to Identify Inhibitors of RecA-Intein Splicing Activity. [Related pubchem assays (depositor defined):AID2097, AID2223, AID489010, AID492950]; assay type: functional
# T1 sequence (P9WHJ3 whole entry): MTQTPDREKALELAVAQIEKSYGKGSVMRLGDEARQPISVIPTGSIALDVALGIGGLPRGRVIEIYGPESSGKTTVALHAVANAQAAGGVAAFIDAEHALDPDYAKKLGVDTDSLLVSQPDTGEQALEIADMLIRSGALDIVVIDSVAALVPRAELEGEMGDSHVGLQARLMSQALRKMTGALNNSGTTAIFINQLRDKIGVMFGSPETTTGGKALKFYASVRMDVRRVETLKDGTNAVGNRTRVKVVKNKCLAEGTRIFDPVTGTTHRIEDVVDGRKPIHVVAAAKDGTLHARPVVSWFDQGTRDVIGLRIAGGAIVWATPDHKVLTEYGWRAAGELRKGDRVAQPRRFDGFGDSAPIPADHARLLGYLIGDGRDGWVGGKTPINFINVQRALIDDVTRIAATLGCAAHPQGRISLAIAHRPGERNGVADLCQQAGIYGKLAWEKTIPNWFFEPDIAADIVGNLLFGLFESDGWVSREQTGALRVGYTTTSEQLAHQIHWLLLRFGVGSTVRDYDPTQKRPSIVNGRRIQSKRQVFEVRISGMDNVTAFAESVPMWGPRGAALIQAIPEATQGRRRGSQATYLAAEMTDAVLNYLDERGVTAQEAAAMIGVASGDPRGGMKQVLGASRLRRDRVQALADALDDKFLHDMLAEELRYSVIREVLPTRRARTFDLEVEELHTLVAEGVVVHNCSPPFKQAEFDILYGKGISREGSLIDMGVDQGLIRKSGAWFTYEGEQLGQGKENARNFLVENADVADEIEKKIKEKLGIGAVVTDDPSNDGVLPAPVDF
# [1] = THP-1 cell cytotoxicity, dose response, cytotoxicity control for non-replicating M. tuberculosis project (AID 489025); assay type: functional
# [2] = target: T2, Replicative DNA helicase DnaB (Mycobacterium tuberculosis, UniProt P9WMR3); assay: DnaB intein splicing inhibitors, dose response, biochemical, cell-free fluorescence (AID 449749); assay type: functional
# T2 sequence (P9WMR3 whole entry): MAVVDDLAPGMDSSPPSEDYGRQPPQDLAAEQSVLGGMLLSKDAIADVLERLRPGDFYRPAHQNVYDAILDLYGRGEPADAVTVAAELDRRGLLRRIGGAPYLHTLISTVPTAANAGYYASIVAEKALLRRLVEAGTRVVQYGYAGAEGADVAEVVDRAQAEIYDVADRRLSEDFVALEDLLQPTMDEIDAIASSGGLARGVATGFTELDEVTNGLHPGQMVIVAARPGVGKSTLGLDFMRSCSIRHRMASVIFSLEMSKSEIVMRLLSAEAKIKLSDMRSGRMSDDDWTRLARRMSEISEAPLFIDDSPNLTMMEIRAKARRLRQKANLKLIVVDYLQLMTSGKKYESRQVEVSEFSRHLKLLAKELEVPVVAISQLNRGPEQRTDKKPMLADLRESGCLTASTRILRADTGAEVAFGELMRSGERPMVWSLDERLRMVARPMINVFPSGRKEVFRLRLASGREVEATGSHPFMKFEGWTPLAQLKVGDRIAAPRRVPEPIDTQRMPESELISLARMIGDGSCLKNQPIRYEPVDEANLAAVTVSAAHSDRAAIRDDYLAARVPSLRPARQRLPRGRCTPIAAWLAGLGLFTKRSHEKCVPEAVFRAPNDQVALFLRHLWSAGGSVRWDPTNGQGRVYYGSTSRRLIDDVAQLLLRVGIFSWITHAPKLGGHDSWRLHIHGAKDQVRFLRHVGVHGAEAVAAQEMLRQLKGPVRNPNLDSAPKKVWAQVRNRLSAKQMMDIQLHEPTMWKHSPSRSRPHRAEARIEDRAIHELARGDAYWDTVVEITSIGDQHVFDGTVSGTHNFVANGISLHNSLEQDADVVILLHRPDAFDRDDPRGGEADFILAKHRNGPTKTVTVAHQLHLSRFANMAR
# [3] = target: G-protein coupled receptor 55 (Homo sapiens, UniProt Q9Y2T6); assay: inhibition of LPI-stimulated GPR55 beta-arrestin translocation – imaging, U2OS, beta-arrestin-GFP, LPI agonist, primary screen (AID 2013); assay type: functional;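 note: antagonist potency measured as reduced agonist-driven arrestin aggregation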
# Protein skinhead-1 = target: T3, Protein skinhead-1 (Caenorhabditis elegans, UniProt P34707); assay type: functional
# T3 sequence (P34707 whole entry): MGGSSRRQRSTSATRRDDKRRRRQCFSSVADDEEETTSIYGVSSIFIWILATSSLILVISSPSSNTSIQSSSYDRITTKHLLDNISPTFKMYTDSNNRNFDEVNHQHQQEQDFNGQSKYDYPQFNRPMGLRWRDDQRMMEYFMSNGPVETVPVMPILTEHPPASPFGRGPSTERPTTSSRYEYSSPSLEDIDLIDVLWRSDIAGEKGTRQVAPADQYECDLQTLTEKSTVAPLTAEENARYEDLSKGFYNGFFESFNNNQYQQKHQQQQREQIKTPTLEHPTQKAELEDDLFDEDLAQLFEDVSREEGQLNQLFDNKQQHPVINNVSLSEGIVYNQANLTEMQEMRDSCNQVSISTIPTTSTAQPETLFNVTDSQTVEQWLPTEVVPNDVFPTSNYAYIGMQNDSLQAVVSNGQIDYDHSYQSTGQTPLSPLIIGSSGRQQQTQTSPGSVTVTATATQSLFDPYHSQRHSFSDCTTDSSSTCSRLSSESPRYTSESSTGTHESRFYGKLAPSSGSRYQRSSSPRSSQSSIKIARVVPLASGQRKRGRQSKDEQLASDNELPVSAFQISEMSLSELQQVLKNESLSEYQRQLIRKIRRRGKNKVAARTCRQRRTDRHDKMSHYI
# [4] = target: T4, Heat shock factor protein 1 (Mus musculus, UniProt P38532); assay: enhancement of HSF1-driven luciferase signal – cell-based, NIH3T3, luminescence, dose retest, confirmation (AID 435004); assay type: functional;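 note: stress induced by proteasome inhibitor MG132 added 30 min after compound; luciferase reporter driven by HSF1 response element in NIH3T3 cells; actives raise luminescence as potentiators of the MG132 stress response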
# T4 sequence (P38532 whole entry): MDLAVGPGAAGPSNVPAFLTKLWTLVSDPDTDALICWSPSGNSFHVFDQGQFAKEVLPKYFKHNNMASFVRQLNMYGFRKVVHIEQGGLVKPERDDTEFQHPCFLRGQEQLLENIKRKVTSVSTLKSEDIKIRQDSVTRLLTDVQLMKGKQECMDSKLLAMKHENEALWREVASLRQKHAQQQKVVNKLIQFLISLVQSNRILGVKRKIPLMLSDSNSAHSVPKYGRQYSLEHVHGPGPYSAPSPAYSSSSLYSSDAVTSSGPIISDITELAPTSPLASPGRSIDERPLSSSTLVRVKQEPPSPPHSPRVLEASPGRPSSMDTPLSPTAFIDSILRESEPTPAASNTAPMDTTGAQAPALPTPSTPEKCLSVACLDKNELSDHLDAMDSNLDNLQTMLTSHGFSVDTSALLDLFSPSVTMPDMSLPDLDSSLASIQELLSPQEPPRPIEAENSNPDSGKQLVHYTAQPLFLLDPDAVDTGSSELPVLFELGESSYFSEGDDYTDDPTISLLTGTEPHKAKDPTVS
# [5] = target: T5, Corticotropin-releasing factor receptor 2/Corticotropin-releasing factor-binding protein (Homo sapiens, UniProt P24387+Q13324); assay: Dose Response confirmation of uHTS hits for small molecule antagonists of the CRF-binding protein and CRF-R2 receptor complex.; assay type: functional; conditions: read-out: IC50_Mean
# T5 sequence (Q13324 whole entry): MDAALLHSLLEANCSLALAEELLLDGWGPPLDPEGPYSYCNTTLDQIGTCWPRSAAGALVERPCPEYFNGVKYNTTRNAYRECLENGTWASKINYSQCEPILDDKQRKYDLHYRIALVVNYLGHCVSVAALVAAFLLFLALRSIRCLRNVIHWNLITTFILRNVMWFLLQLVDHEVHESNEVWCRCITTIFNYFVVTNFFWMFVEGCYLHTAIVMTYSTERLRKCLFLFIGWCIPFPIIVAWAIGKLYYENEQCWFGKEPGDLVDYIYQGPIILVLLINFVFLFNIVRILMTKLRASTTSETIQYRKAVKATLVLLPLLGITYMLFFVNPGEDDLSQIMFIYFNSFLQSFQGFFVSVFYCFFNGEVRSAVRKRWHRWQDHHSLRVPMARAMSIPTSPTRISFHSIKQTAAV
# T5 sequence (P24387 whole entry): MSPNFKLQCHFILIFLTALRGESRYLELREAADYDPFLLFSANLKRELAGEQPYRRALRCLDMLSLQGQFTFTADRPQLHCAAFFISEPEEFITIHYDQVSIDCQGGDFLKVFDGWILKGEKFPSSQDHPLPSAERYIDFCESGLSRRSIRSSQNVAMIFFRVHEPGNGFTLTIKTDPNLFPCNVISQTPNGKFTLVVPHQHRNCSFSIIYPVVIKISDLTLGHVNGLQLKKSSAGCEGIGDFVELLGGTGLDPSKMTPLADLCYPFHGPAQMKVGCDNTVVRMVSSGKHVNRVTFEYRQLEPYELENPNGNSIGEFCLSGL
# [6] = viability of PTEN-deleted HCT116 cells – cell-based, HCT116 PTEN knockout, dose response (AID 1047); assay type: functional;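 note: HCT116 colon tumor cells with PTEN knocked out; cells exposed to compound for 60 hours before readout; potency for loss of cell viability measured by luminescence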
# [7] = viability of HCT116 lacking mutant beta-catenin – cell-based, human colon tumor, dose response (AID 1045); assay type: functional;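 note: HCT116 colon tumor cells with beta catenin knocked out; cells exposed to compound for 60 hours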
# [8] = target: T5, Corticotropin-releasing factor receptor 2/Corticotropin-releasing factor-binding protein; assay: activators of CRF receptor 2 with binding protein – uHTS hits, confirmation (AID 602473); assay type: functional; conditions: read-out: EC50_Mean
# [9] = target: Nucleotide-binding oligomerization domain-containing protein 2 (Homo sapiens, UniProt Q9HC29); assay: inhibition of NOD2-driven NF-kB reporter – cell-based, luminescence, uHTS, HEK293 (AID 1566); assay type: functional
# HEK293 [10] = assay: cells; assay type: functional, cell-based; conditions: Homo sapiens
# HEK293 [11] = assay: inhibition of NOD1-driven NF-kB reporter – cell-based, luminescence, uHTS, primary screen (AID 1578); assay type: functional; conditions: Homo sapiens
# HEK293 [12] = assay: cells; assay type: functional, cell-based; conditions: Homo sapiens; remark: listed apart in the source
# HEK293 [13] = assay: cells; assay type: functional, cell-based; conditions: Homo sapiens; remark: listed apart in the source
# HEK293 [14] = assay: NOD2 signaling inhibitors in MDP-stimulated cells, cell-based, uHTS, luminescence (AID 2001); assay type: functional; conditions: Homo sapiens
# [15] = Luminescence Cell-Based Dose Retest to Confirm Inhibitors of Cancer Stem Cells. [Related pubchem assays (depositor defined):AID2717, AID2721]; assay type: functional, Homo sapiens; conditions: Homo sapiens
# Streptokinase A = target: T6, Streptokinase A (Streptococcus pyogenes serotype M1, UniProt P10520); assay: viability-normalized secreted streptokinase activity reduction – plasminogen activation absorbance, OD405, dose response (AID 1914); assay type: functional, Streptococcus pyogenes M1 GAS;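 note: secreted streptokinase activity via plasminogen activation per viability signal from cell pellet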
# T6 sequence (P10520 whole entry): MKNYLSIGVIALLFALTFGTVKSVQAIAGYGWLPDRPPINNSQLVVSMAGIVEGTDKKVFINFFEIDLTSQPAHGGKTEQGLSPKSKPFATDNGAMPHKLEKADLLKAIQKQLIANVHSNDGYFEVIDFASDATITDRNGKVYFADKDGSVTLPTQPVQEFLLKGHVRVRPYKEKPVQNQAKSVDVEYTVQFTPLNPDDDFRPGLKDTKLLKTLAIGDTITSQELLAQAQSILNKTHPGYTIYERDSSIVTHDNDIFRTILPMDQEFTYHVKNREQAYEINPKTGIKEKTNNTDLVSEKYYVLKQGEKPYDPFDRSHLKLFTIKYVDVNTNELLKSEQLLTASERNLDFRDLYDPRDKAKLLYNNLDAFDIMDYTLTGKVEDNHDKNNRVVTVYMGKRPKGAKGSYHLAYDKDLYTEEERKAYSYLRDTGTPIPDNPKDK
# Streptococcus = assay: GAS UMAA2166 growth inhibition – luminescence, BacTiterGlo, counter-screen for streptokinase expression inhibitor project, dose response (AID 1915); assay type: functional, organism-based;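 note: potency for reduction of bacterial viability or growth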
# Sequence of Cytochrome P450 2C9 (P11712 whole entry): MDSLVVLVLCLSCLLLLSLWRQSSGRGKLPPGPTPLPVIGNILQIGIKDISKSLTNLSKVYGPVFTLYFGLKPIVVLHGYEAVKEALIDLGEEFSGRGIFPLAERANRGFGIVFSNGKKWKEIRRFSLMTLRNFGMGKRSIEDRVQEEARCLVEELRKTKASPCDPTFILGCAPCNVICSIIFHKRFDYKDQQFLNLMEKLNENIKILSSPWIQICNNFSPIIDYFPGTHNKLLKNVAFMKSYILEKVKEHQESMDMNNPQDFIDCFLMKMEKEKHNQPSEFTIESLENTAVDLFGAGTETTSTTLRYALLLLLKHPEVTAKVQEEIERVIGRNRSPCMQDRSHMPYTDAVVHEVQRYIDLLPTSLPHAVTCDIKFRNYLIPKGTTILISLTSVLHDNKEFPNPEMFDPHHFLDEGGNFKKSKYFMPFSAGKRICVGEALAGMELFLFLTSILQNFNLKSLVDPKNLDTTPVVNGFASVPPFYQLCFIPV
# Sequence of G-protein coupled receptor 55 (Q9Y2T6 whole entry): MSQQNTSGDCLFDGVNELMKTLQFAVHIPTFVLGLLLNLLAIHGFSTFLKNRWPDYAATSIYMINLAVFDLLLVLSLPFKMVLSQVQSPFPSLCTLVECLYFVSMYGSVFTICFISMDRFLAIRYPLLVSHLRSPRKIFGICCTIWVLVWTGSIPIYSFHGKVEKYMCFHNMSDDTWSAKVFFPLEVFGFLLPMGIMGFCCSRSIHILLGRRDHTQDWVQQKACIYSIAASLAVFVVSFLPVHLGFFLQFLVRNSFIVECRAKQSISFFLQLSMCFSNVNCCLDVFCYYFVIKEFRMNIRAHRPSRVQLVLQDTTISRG
# Sequence of Nucleotide-binding oligomerization domain-containing protein 2 (Q9HC29 whole entry, the tested form may be a part): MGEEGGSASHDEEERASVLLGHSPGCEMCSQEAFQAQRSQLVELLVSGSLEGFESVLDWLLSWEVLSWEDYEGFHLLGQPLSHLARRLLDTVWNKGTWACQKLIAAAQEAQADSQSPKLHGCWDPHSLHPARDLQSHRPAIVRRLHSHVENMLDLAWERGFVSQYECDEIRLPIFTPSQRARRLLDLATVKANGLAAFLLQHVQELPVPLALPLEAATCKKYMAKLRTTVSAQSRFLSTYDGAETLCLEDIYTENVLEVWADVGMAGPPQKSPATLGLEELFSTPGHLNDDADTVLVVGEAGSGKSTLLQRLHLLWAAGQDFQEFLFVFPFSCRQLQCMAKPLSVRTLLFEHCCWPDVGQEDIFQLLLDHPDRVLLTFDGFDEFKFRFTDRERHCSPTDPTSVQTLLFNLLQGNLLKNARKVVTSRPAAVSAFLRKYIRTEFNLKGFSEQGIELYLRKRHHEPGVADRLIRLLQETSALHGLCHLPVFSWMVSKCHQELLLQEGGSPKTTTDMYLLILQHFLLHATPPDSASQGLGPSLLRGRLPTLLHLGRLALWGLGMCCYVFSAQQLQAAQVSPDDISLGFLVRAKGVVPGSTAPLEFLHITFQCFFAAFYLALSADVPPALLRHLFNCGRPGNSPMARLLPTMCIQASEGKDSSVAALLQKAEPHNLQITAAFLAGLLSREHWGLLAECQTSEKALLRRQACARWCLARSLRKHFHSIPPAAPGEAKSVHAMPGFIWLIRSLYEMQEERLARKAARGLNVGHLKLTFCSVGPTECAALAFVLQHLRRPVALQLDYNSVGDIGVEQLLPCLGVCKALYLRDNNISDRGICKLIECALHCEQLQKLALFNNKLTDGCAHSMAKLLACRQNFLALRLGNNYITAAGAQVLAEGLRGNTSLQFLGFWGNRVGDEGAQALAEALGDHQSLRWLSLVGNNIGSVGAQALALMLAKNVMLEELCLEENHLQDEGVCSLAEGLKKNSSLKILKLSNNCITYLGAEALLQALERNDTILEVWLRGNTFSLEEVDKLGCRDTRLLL
# Sequence of Cytochrome P450 2C19 (P33261 whole entry): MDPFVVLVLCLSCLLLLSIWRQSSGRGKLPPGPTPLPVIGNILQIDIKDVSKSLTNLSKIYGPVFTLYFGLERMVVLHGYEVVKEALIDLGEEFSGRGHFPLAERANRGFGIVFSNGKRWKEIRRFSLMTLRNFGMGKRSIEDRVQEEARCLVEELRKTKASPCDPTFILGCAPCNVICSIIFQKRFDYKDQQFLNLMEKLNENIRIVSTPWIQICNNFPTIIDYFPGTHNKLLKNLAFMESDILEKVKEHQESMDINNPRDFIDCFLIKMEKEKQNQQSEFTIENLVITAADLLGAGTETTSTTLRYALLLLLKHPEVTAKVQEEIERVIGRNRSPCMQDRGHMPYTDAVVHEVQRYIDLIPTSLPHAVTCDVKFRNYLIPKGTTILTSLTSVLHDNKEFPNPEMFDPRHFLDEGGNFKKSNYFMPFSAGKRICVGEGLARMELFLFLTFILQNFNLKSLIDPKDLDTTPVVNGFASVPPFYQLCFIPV
structure (smiles),measurement,setting,value
C#CCCCO/N=C1/[C@H]2O[C@@H]2[C@@H](O)[C@H]2[C@H]1CCn1c(=O)n(Cc3cc4c(cc3Cl)OCO4)c(=O)n12,AC50,Cytochrome P450 2C9,inconclusive
same,AC50,Cytochrome P450 2C19,inconclusive
Cc1ccc(CNC(=O)C2CC(c3ccccc3[N+](=O)[O-])=NO2)o1 (configuration not stated),AC50,Cytochrome P450 2C9,inconclusive
O=S(=O)(Nc1ccc(O)c2ccccc12)c1ccc(F)cc1,EC50,Protein RecA,0.0466 µM (active)
same,CC50,[1],> 40 µM (active)
same,AC50,[2],0.214 µM (active)
COc1cc(C)nc(N2CCCC(C(=O)Nc3cc(Cl)ccc3OC)C2)n1 (configuration not stated),AC50,Cytochrome P450 2C9,inconclusive
CN1/C(=C/C(=O)CSc2ccccc2C(=O)O)C(C)(C)c2ccccc21,IC50,[3],3.44 µM (active)
same,IC50,Protein skinhead-1,> 100 µM (inactive)
CCOC(=O)C(C)(C)N(Cc1ccc(C)cc1)S(=O)(=O)c1ccc(Cl)c([N+](=O)[O-])c1,IC50,[3],3.61 µM (active)
same,EC50,[4],20.1 µM (active)
same,IC50,[5],> 47.1 µM (inactive)
same,EC50,[6],17.7 µM (active)
same,EC50,[7],15.3 µM (active)
same,EC50,[8],> 53 µM (inactive)
Cc1ccc(NC(=O)CSc2ncnc3ccccc23)cc1S(=O)(=O)N1CCCCC1,EC50,[9],4.73 µM (active)
same,IC50,HEK293 [10],1.81 µM (active)
same,EC50,HEK293 [11],4.43 µM (active)
same,IC50,HEK293 [12],> 20 µM (inactive)
same,IC50,HEK293 [13],6.83 µM (active)
same,IC50,HEK293 [14],1.73 µM (active)
Cc1ccc(C(=O)NC(=C(Cl)Cl)S(=O)(=O)c2ccc(C)cc2)cc1,EC50,[9],14.6 µM (active)
same,IC50,HEK293 [10],6.28 µM (active)
same,EC50,HEK293 [11],2.46 µM (active)
same,AC50,[15],4.39 µM (active)
same,IC50,HEK293 [12],> 20 µM (inactive)
same,IC50,HEK293 [13],> 20 µM (inactive)
same,IC50,HEK293 [14],5.55 µM (active)
COC(=O)c1c(NC(NC(=O)C(C)(C)C)C(Cl)(Cl)Cl)sc2c1CCC2 (configuration not stated),IC50,[3],2.01 µM (active)
same,EC50,Streptokinase A,2.8 µM (active)
same,EC50,Streptococcus,20.3 µM (active)
COc1ccc(CNCc2cc3c(C(C)(C)C)nn(-c4ccccc4)c3[nH]c2=O)cc1,IC50,[3],2.18 µM (active)
